Experimental data from patent US5807900A, “Method for identifying compounds having increased activity for the repair of skin photodamage” (priority 1995, dated 1998).
Like-named read-outs stand apart in the source and are kept apart here.

Key:
human RAR-α [1] = biological target: T1, human RAR-α (Homo sapiens, UniProt P10276); assay: Binding assay for human RAR-α (displacement of 3H-retinoic acid); details: 3H-retinoic acid displacement, mean of two or more experiments
T1 sequence (P10276 201-462 limits assumed): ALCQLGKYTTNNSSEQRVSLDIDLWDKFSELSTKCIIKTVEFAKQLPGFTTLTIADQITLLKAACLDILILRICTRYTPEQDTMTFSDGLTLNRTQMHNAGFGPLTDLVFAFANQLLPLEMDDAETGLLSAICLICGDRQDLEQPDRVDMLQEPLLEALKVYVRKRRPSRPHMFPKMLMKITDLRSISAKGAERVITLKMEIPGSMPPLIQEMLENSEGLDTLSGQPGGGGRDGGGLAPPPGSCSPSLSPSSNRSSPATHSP

human RAR-β = biological target: T2, human RAR-β (Homo sapiens, UniProt P10826); assay: Binding assay for human RAR-β (displacement of 3H-retinoic acid); details: 3H-retinoic acid displacement, mean of two or more experiments
T2 sequence (P10826 201-455 limits assumed): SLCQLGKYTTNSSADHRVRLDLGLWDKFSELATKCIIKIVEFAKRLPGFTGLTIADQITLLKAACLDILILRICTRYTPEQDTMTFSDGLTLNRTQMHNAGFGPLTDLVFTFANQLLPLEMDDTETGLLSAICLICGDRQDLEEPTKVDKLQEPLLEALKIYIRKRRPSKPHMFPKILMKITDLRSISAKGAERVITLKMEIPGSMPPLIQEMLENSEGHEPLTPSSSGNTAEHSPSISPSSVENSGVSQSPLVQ
Procedure: (§1) Binding Assay for Human RAR-α, RAR-β and RAR-γ
(§2) Binding assays were performed essentially as described in Apfel et al., supra. […] Extracts containing the receptors were used in a competitive binding assay which depends upon the ability of increasing concentrations of a retinoid to displace ^3 H-retinoic acid. In a typical assay, 0.2 to 0.4 picomoles of receptors were incubated in 0.2 ml of 50 mM Tris HCl, pH 7.4, 50 mM NaCl, 2 mM EDTA (binding buffer) containing 0.5% gelatin, 1% DMSO, 2-5 nM ^3 H-retinoic acid and various concentrations of unlabelled retinoids. After 3-5 hours at 22° C., 0.15 ml of chilled charcoal/dextran suspension (5% Norit A/0.5% dextran T-40 in binding buffer) were added for 15 min at 4° C. The tubes were centrifuged at 12,000 x g for 15 minutes and the supernates counted. Binding parameters were calculated from competition curves using the Ligand program.
(§3) Data are means of values obtained from two or more individual experiments, rounded off to two significant figures. […] When binding inhibition at 10,000 nM is less than 50%, >10,000 is indicated.

human RAR-γ [2] = assay: Binding assay for human RAR-γ (displacement of 3H-retinoic acid); details: 3H-retinoic acid displacement, mean of two or more experiments
Procedure: as §1, §2, §3

human RAR-α [3] = assay: RAR-α transactivation assay (SeAP reporter, COS cells); type: cell-based; details: for Transactivation % max (α): relative to all-trans-retinoic acid at same concentration (1,000 nM or 10,000 nM)
Procedure: (§4) Retinoid Receptor Transactivation Assays
(§5) Transactivation assays were performed essentially as described in Apfel et al., supra. For the RAR transcription activation test system, the secreted alkaline phosphatase gene (SeAP) is used as reporter. To have a screening system specific for the transfected receptor, chimeric receptors are used. These contain an estrogen receptor DNA binding domain and therefore recognize the estrogen response element (ERE) which no endogenous RAR's in mammalian cells will recognize.
(§6) The transactivation assay system has been adapted to 96-well plates and most steps are done by a robot. Briefly, on day 1 confluent COS cells are subcultured at an equivalent density onto 96-well plates in DMEM+10% charcoal stripped serum. On day 2 DNA is prepared for transfection by mixing the following: 10 μg vit-TK-SeAP reporter plasmid, 2 μg RAR expression plasmid, 2 μg transfection control plasmid and 30 μl Transfectam (lipopolyamine transfection reagent). Cells are washed twice with serum-free medium and DNA/transfectam mix added. After 1 hour medium is removed and replaced with growth medium containing test retinoids. On day 4 or 5 the culture supernatant is removed, heated to 65° for 5 min to inactivate nonspecific phosphatases, and diluted 1:10 with water. 20 μl samples are added to 100 μl of phosphatase substrate in buffer. After 1 hour at 37° the luminescence is measured in a 96-well luminometer.
(§7) 100 μl of β-galactosidase substrate is added to the adherent cells. Plates are incubated for 1 hour at 37° and the supernatants transferred to separate plates for quantitation of β-galactosidase activity by luminescence measurement. Transactivation results are expressed as the ratio of SeAP/β-galactosidase activity for each well to correct for well-to-well variation in transfection efficiency.
(§8) Data are means of values obtained from two or more individual experiments, rounded off to two significant figures. […] The maximum transactivation activity is determined from the plot where increasing dosage provides little or no additional activity, i.e., where the plot begins to level off. For active retinoids the highest concentration tested is 1000 nM.

RAR-β = RAR-β transactivation assay (SeAP reporter, COS cells); type: cell-based, human; details: for Transactivation % max (β): relative to all-trans-retinoic acid at same concentration (1,000 nM or 10,000 nM)
Procedure: as §4, §5, §6, §7, §8

human RAR-γ [4] = assay: RAR-γ transactivation assay (SeAP reporter, COS cells); type: cell-based; details: for Transactivation % max (γ): relative to all-trans-retinoic acid at same concentration (1,000 nM or 10,000 nM)
Procedure: as §4, §5, §6, §7, §8

photodamaged skin = assay: Measurement of photodamage repair in the hairless mouse model; type: in vivo, Hairless mice (female, HRS/J strain); details: for Photodamage repair activity (scale 0 to 4): UVB-irradiated, topical in acetone three times per week, three doses
Text: The ability of a composition of the invention to induce repair of photodamaged skin may be determined by any conventional means. One conventional method of determining the ability of a topical composition to repair photodamaged skin is the hairless mouse model described by Kligman et al., supra. […] In this model, repair is defined by the appearance of a zone of normalized dermis extending from the epidermis down to the layer of compressed elastin. The extent of repair is reflected by the width of this zone. […] The average width of the repair zone is then calculated by dividing the area by the length of the histological section that was measured.
The width of the repair zone is […] an activity value of 4.
Measurement of Photodamage Repair
Hairless mice (female, HRS/J strain, Jackson Labs, 5-7 weeks old at the start of the experiments) were housed in yellow light and irradiated three times per week with a bank of 8 Westinghouse Sunlamps (FS120) placed about 20 cm above the animals. Daily doses were 0.03 J/cm^2 for two weeks, 0.06 J/cm2 for two weeks and 0.08 J/cm2 thereafter. The radiation dose is controlled by an International Light Model IL844A Phototherapy Exposure Control and a model SEE240 detector.
To effect repair of the dermal damage, the UVB irradiation was discontinued and the animals were divided into groups of approximately eight and treated three times per week with various concentrations of the retinoids dissolved in acetone. Stock solutions are made up freshly every week in subdued light at concentrations such that the dose is delivered in 100 μl volume and applied topically with a plastic pipette to an area of about 10 cm^2 on the back of the animal. All dosing was done under yellow light. A control group treated with acetone alone was included.
Two-cm strips of dorsal skin were taken longitudinally down the center of the irradiated (and treated) area. Elastin fibers were stained with Luna's aldehyde fuchsin and collagen by Van Gieson. In this model, repair is defined by the appearance of a normalized dermis extending from the epidermis down to the layer of compressed elastin. The extent of repair is reflected by the width of this zone. […] Twenty-four fields each of which, at 100X magnification, represents a section of tissue 0.57 mm long, are examined and the area calculated. The results are reported as the average area per field in mm^2. Thus the average width of the repair zone can be obtained by dividing this average area by 0.57 mm. […] All microscopic fields are included in the calculations of average area (or width). Data are analyzed by Student's t-test.
Compounds are tested at three doses and an approximate ED50 calculated.

[5] = COS cells, 50% of the compound's own maximum, set to highest concentration tested (usually 1000 nM) if no maximum reached, read-out: Transactivation ED50 (α)
[6] = COS cells, 50% of the compound's own maximum, set to highest concentration tested (usually 1000 nM) if no maximum reached, read-out: Transactivation ED50 (β)
[7] = RAR-γ, COS cells, 50% of the compound's own maximum, set to highest concentration tested (usually 1000 nM) if no maximum reached, read-out: Transactivation ED50 (γ)

SMILES	IC50 (human RAR-α [1])	IC50 (human RAR-β)	IC50 (human RAR-γ [2])	EC50 (human RAR-α [3]; [5])	EC50 (RAR-β; [6])	EC50 (human RAR-γ [4]; [7])	Transactivation % max (α) (human RAR-α [3])	Transactivation % max (β) (RAR-β)	Transactivation % max (γ) (human RAR-γ [4]; RAR-γ)	Photodamage repair activity (scale 0 to 4) (photodamaged skin)	EC50 (RAR-β; read-out: Transactivation ED50 (β), COS cells, 50% of the compound's own maximum, set to highest concentration tested (usually 1000 nM) if no maximum reached)	EC50 (human RAR-γ [4])	ED50 for photodamage repair (photodamaged skin; μg of test compound applied to 10 cm^2 of skin area, standard retinoid)	EC50 (human RAR-α [3]; read-out: Transactivation ED50 (α), COS cells, 50% of the compound's own maximum, set to highest concentration tested (usually 1000 nM) if no maximum reached)
C/C(=C\c1ccc(C(=O)O)cc1)c1ccc2c(c1)C(C)(C)CCC2(C)C [F]	–	–	–	–	–	–	–	–	–	1 (an ED50 of 100 μg)	–	–	–	–
COc1cc(C)c(/C=C/C(C)=C/C=C/C(C)=C/C(=O)O)c(C)c1C [D, acitretin, reference compound]	–	–	[…]	–	–	–	–	–	–	0	–	–	–	–
CC1(C)CCC(C)(C)c2cc(C(=O)Nc3ccc(C(=O)O)cc3)ccc21 [J]	–	–	–	–	–	–	–	–	–	0	–	–	–	–
CCOC(=O)/C=C(C)/C=C/C=C(C)/C=C/c1c(C)cc(OC)c(C)c1C [E, etretinate, reference compound]	> 10000 nM	> 10000 nM	> 10000 nM	1000 nM	1000 nM	1000 nM	14%	21%	20%	0	–	–	–	–
CC1(C)CCC(C)(C)c2cc(NC(=O)c3ccc(C(=O)O)cc3)ccc21 [K]	–	–	–	–	–	–	–	–	–	0	–	–	–	–

Second part, led by results:

IC50 (human RAR-α [1])	IC50 (human RAR-β)	IC50 (human RAR-γ [2])	EC50 (human RAR-α [3]; [5])	EC50 (RAR-β; [6])	EC50 (human RAR-γ [4]; [7])	SMILES	Transactivation % max (α) (human RAR-α [3])	Transactivation % max (β) (RAR-β)	Transactivation % max (γ) (human RAR-γ [4]; RAR-γ)	Photodamage repair activity (scale 0 to 4) (photodamaged skin)	EC50 (RAR-β; read-out: Transactivation ED50 (β), COS cells, 50% of the compound's own maximum, set to highest concentration tested (usually 1000 nM) if no maximum reached)	EC50 (human RAR-γ [4])	ED50 for photodamage repair (photodamaged skin; μg of test compound applied to 10 cm^2 of skin area, standard retinoid)	EC50 (human RAR-α [3]; read-out: Transactivation ED50 (α), COS cells, 50% of the compound's own maximum, set to highest concentration tested (usually 1000 nM) if no maximum reached)
70 nM	4700 nM	4200 nM	1000 nM	1000 nM	1000 nM	CCCCCCCOc1cc2c(cc1/C(C)=C/c1ccc(C(=O)O)cc1)C(C)(C)CCS2(=O)=O [Compound L, p-[(E)-2-[3',4'-dihydro-4',4'-dimethyl-7'-(heptyloxy)-2'H-1-benzothiopyran-6'-yl]propenyl]benzoic acid 1',1'-dioxide, reference compound]	14%	14%	18%	0	–	–	–	–
1500 nM	2900 nM	170 nM	1000 nM	1000 nM	64 nM	CCCCCCc1cc2c(cc1/C=C/C=C/C(C)=C/C(=O)O)C(C)(C)CCC2(C)C [N]	63%	60%	123%	4	–	–	–	–
> 10000 nM	> 10000 nM	> 10000 nM	1000 nM	1000 nM	1000 nM	C/C(=C\c1ccc(S(C)(=O)=O)cc1)c1ccc2c(c1)C(C)(C)CCC2(C)C [G]	23%	17%	36%	3 (an ED50 of 1 μg or less (highly active))	–	–	–	–
2200 nM	2300 nM	210 nM	1000 nM	88 nM	15 nM	CCCCCCc1cc2c(cc1/C=C/c1ccc(C(=O)O)cc1)C(C)(C)CCC2(C)C [M]	24%	62%	36%	4	–	–	–	–
1500 nM	1800 nM	170 nM	130 nM	30 nM	6 nM	CCCCc1cc2c(cc1/C=C/c1ccc(C(=O)O)cc1)C(C)(C)CCC2(C)C [O]	56%	88%	105%	4	–	–	–	–
> 10000 nM	9300 nM	2000 nM	1000 nM	150 nM	29 nM	CCCCCOc1cc2c(cc1/C=C/C=C/C(C)=C/C(=O)O)C(C)(C)CCC2(C)C [Q]	45%	81%	96%	4	–	–	–	–
